Consider five compounds from article PMC4926070, “Cembranoids from a Chinese Collection of the Soft Coral Lobophytum crassum” (Marine Drugs, 2016).

The nature of series [1]: Cytotoxicity against mouse peritoneal macrophages. The format is cell-based. How it is done:
(§1) A previously established protocol was followed except that 30 mM dexamethasone in DMSO was used as the positive control and each test compound (30 mM in DMSO) was diluted to 1–30 μM at r.t. before the experiment.

Series [2] concerns LPS-induced NO production in mouse peritoneal macrophages (PEMФ). As to the kind of experiment: Inhibition of lipopolysaccharide (LPS)-induced nitric oxide (NO) production. The format is cell-based. Particulars: Peritoneal macrophage, compounds tested at 1–30 μM, read-out: IC50, inhibitory activity against LPS-induced NO production. The procedure:
All compounds were tested for their in vitro anti-inflammatory activities. Nitric oxide (NO) is an important signaling molecule that is involved in the regulation of diverse physiological and pathological processes. Overproduction of NO is associated with various human diseases, particularly acute and chronic inflammation, while the level of NO can reflect the degree of inflammation.
as §1

Setting [3] is: mouse peritoneal macrophages, read-out: CC50, cytotoxicity against mouse peritoneal macrophages.

Broadly, the CC50 is the concentration giving 50% cytotoxicity. A word on the IC50: it is the concentration that gives 50% inhibition.

Read-outs that look alike come from different tables or passages of the source.

Take `COC(=O)/C1=C\C=C(\C(C)C)CCC2=CCC[C@](C)(OC2=O)C(=O)CC1` [Compound 17, ketoemblide]: the CC50 in series [1] (setting [3]) was greater than 60 µM. Moreover, in series [2], the IC50 was 12 ± 2 µM.
The compound `CC1=C2CC/C(C)=C/CC[C@@]3(C)O[C@@H]3CC/C(C)=C/[C@H]2OC1=O` [Compound 12, ent-sarcophine] had a CC50 in series [1] greater than 60 µM. Further, in series [2], the IC50 is 24 ± 2 µM.
For `COC(=O)C1=CCCC2(C)OC2CCC(C(=O)OC)=CC=C(C(C)C)CC1` (stereo not shown) [Compound 1, Locrassumin A], the CC50 in series [1] (setting [3]) was greater than 60 µM. In series [2], the half-maximal inhibitory concentration (IC50) was 17 ± 3 µM.
For `COC(=O)/C1=C\CC[C@@]2(C)O[C@@H]2CC/C(C(=O)OC)=C/C=C(/C(C)C)CC1` [Compound 13, sarcophytonolide O] the same measures were greater than 60 µM and 8 ± 1 µM.
On the same counts, the results for `COC1(C)CC=CC(C)(O)CCC2=C(C)COC2C=C(C)CCC1O` (stereo not drawn) [Compound 7, (2R*,7R*,8S*,12S*,1Z,3E,10E)-8-methoxy-2,16-epoxycembra-1(15),3,10-trien-7,12-diol] are greater than 60 µM and 13 ± 2 µM.
